Patent publication US12053506B2, “Romo1-derived antimicrobial peptides and variants thereof” (priority 2019, dated 2024)
Values after ≈ are worked out from the molar mass of the structure shown. Non-standard residues stand in square brackets, D forms with d. Residues, ends and D or L forms follow the SMILES beside them. No end group written: not given here. Nle = CCCC[C@H](N)C(=O)O

Key:
CRPA = assay: MBC, evaluation of antibacterial activities of KU-5878 variants; assay type: cell-based; conditions: Tables 11-15, no unit printed
Experimental: Variants were prepared by deleting one amino acid from the amino acid sequence of KU-5878 (SEQ ID NO: 13), and the antibacterial activities thereof were evaluated.
Variants were prepared by deleting two or more amino acids from the amino acid sequence of KU-5878 (SEQ ID NO: 13), and the antibacterial activities thereof were evaluated.
One amino acid in the amino acid sequence of KU-5878 (SEQ ID NO: 13) was substituted, and the antibacterial activities of the peptides were evaluated.
Substitutions of Q62K, S63K and T66K were sequentially added to the amino acid sequence of KU-5878-T59K, and the antibacterial activities of the peptides were evaluated.
An amino acid repeat sequence was added to the C-terminus of KU-5878, and the antibacterial activities of the peptides were evaluated. According to Table 15 below, when the R (arginine) repeat sequence or K (lysine) sequence was added to the C-terminus of KU-5878, the antibacterial activity of the peptide increased.

[1] = system: Pseudomonas aeruginosa (ATCC 27853); assay type: cell-based; conditions: for MBC Pseudomonas aeruginosa: Tables 11-15, no unit printed; for MBC value (μg/ml) against Pseudomonas aeruginosa: ATCC 27853, 1 h
Description: (§1) Romo1 protein comprises two α-helices. The present inventors synthesized the α-helix 2 region having both hydrophilicity and hydrophobicity, and evaluated the antibacterial activity thereof using minimum bactericidal concentration (MBC) assay. The α-helix 2 region was named KU-5279 (the 52-79 amino acid region of Romo1 protein). Then, in order to identify peptides that are beneficial for human application and have excellent antibacterial activity, the present inventors synthesized several peptides comprising a sequence of contiguous amino acids starting at any amino acid selected from the 52-79 amino acid region of Romo1 protein, and comparatively evaluated the antibacterial activities of the peptides by minimum bactericidal concentration assay (See Table 1 below for information on each peptide). Evaluation of the antibacterial activity of each peptide by minimum bactericidal concentration assay was specifically performed as follows. First, each of Pseudomonas aeruginosa (ATCC 27853) and Staphylococcus aureus (ATCC 29213) was cultured in 3% (w/v) TSB (Tryptic Soy Broth) liquid medium at 37° C. and 200 rpm for 4 hours, and then further cultured under the same conditions for 3 hours to a concentration of 5×10^6 CFU/ml. Strain solutions were prepared by diluting each of the further cultured strains with SP (sodium phosphate; 10 mM sodium phosphate, 1% TSB) buffer to a final concentration of 2×10^5 CFU/ml. Then, each peptide at varying concentrations (0 μg/ml to 300 μg/ml) was dispensed into each well of a 96-well microplate, and 100 μl (1×10^5 CFU/ml) of each of the prepared strain solutions was added thereto, mixed therewith, and allowed to react with the peptide in an incubator at 37° C. for 1 hour. In addition, 30 g/L of TS (tryptic soy) and 15 g/L of agar were dissolved in distilled water and sterilized, and then 25 ml of the solution was poured onto a 100 mm round plate and solidified at room temperature for one day or more, thereby preparing a TS agar plate. 10 μl of each reaction solution of the peptide and the strain was plated on the TS agar plate at a constant size, and incubated in an incubator at 37° C. for 18 hours, and then colony formation on the plate was checked. The minimum bactericidal concentration was defined as the minimum concentration of the peptide at which no colony was formed, and the experimental results are shown in Table 1 below.

[2] = system: Staphylococcus aureus (ATCC 29213); assay type: cell-based; conditions: for MBC Staphylococcus aureus: Tables 11-15, no unit printed; for MBC value (μg/ml) against Staphylococcus aureus: ATCC 29213, 1 h
Description: as §1

[3] = system: methicillin-resistant Staphylococcus aureus (ATCC 33591); conditions: Tables 11-15, no unit printed
Experimental: First, each of Pseudomonas aeruginosa (ATCC 27853) and Staphylococcus aureus (ATCC 29213) was cultured in 3% (w/v) TSB (Tryptic Soy Broth) liquid medium at 37° C. and 200 rpm for 4 hours, and then further cultured under the same conditions for 3 hours to a concentration of 5×10^6 CFU/ml. Strain solutions were prepared by diluting each of the further cultured strains with SP (sodium phosphate; 10 mM sodium phosphate, 1% TSB) buffer to a final concentration of 2×10^5 CFU/ml.
Then, each peptide at varying concentrations (0 μg/ml to 300 μg/ml) was dispensed into each well of a 96-well microplate, and 100 μl (1×10^5 CFU/ml) of each of the prepared strain solutions was added thereto, mixed therewith, and allowed to react with the peptide in an incubator at 37° C. for 1 hour.
In addition, 30 g/L of TS (tryptic soy) and 15 g/L of agar were dissolved in distilled water and sterilized, and then 25 ml of the solution was poured onto a 100 mm round plate and solidified at room temperature for one day or more, thereby preparing a TS agar plate. 10 μl of each reaction solution of the peptide and the strain was plated on the TS agar plate at a constant size, and incubated in an incubator at 37° C. for 18 hours, and then colony formation on the plate was checked.
Specifically, each type of bacteria was cultured in 3% (w/v) TSB (Tryptic Soy Broth) liquid medium at 37° C. and 200 rpm for 4 hours, and then further cultured under the same conditions for 3 hours to a concentration of 5×10^6 CFU/ml. Strain solutions were prepared by diluting each of the […] of 2×10^5 CFU/ml.
Then, the KU-5878 peptide at varying concentrations (0 μg/ml to 300 μg/ml) was dispensed into each well of a 96-well microplate, and 100 μl (1×10^5 CFU/ml) of each of the prepared strain solutions was added thereto, mixed therewith, and allowed to react with the peptide in an incubator at 37° C. for 1 hour.
In addition, 10 μl of each reaction solution of the peptide and the strain was plated on the TS agar plate at a constant size, and incubated in an incubator at 37° C. for 18 hours, and then colony formation on the plate was checked.

Row | Compound | MBC CRPA (CRPA) [µg/mL] | MBC Pseudomonas aeruginosa [1] [µg/mL] | MBC Staphylococcus aureus [2] [µg/mL] | MBC MRSA [3] [µg/mL] | MBC value (μg/ml) against Pseudomonas aeruginosa [1] [µg/mL] | MBC value (μg/ml) against Staphylococcus aureus [2] [µg/mL]
1 | KTMMQSGGTFG-FMAIGMGIR [Peptide 5878-d69T] | 140 | 120 | 120 | 140 | – | –
2 | KTMMQSGGTFGTFMAIGMAIR [KU-5878-G76A] | > 300 | > 300 | > 300 | > 300 | >400 | >400
3 | KTMMQSGGTFGTFMAIGMGI- [Peptide 5878-d78R] | > 300 | 300 | 300 | > 300 | – | –
4 | KTMMQSGGTFGTFMAI-MGIR [Peptide 5878-d74G] | 30 | 20 | 25 | 25 | – | –
5 | KTMM-SGGTFGTFMAIGMGIR [Peptide 5878-d62Q] | 100 | 100 | 90 | 100 | – | –
6 | KTMMQSGGTFGTFMAIGMGAR [KU-5878-I77A] | > 300 | > 300 | > 300 | > 300 | >300 | >300
7 | KTMMQSGGTAGTFMAIGMGIR [KU-5878-F67A] | > 300 | > 300 | > 300 | > 300 | >300 | >300
8 | CCCC[C@H](NC(=O)CNC(=O)[C@@H](NC(=O)[C@H](C)NC(=O)[C@H](CCCC)NC(=O)[C@H](Cc1ccccc1)NC(=O)[C@@H](NC(=O)CNC(=O)[C@H](Cc1ccccc1)NC(=O)[C@@H](NC(=O)CNC(=O)CNC(=O)[C@H](CO)NC(=O)[C@H](CCC(N)=O)NC(=O)[C@H](CCCC)NC(=O)[C@H](CCCC)NC(=O)[C@@H](NC(=O)[C@@H](N)CCCCN)[C@@H](C)O)[C@@H](C)O)[C@@H](C)O)[C@@H](C)CC)C(=O)NCC(=O)N[C@H](C(=O)N[C@@H](CCCNC(=N)N)C(=O)O)[C@@H](C)CC [KU-5878-4Nle] (H-KT[Nle][Nle]QSGGTFGTF[Nle]AIG[Nle]GIR-OH; N-terminus and C-terminus assumed) | 100 (≈ 46.5 µM) | 110 (≈ 51.1 µM) | 90 (≈ 41.8 µM) | 100 (≈ 46.5 µM) | 110 (≈ 51.1 µM) | 90 (≈ 41.8 µM)
9 | KTMMQSGGT-GTFMAIGMGIR [Peptide 5878-d67F] | 200 | 200 | 200 | 200 | – | –
10 | KTMMQSGGTF-TFMAIGMGIR [Peptide 5878-d68G] | 18 | 25 | 20 | 25 | – | –
11 | KTMMQSGGHFGTFMAIGMGIR [KU-5878-T66H] | > 300 | > 300 | > 300 | > 300 | – | –
12 | KTMMASGGTFGTFMAIGMGIR [KU-5878-Q62A] | > 300 | > 300 | > 300 | > 300 | – | –
13 | KTMMQSGGAFGTFMAIGMGIR [KU-5878-T66A] | > 300 | > 300 | > 300 | > 300 | – | –
14 | KT-MQS-GTFGTF--IG-GIR [5878-d60M, d64G, d71M, d72A, d75M] | 200 | 200 | 200 | 200 | – | –
15 | KTMMQSGGTFGTWMAIGMGIR [KU-5878-F70W] | 300 | 300 | 300 | > 300 | 300 | 300
16 | KTMMQSGGTFGTFM-IGMGIR [Peptide 5878-d72A] | 170 | 150 | 150 | 160 | – | –
17 | -TMMQSGGTFGTFMAIGMGIR [Peptide 5878-d58K] | 300 | 300 | 300 | > 300 | – | –
18 | KTAMQSGGTFGTFMAIGMGIR [KU-5878-M60A] | > 300 | > 300 | > 300 | > 300 | >300 | >300
19 | KTMMSSGGTFGTFMAIGMGIR [KU-5878-Q62S] | > 300 | > 300 | > 300 | > 300 | – | –
20 | KT-MQSGGTFGTFM-IG-GIR [5878-d60M, d72A, d75M] | 300 | 300 | 280 | 300 | – | –
21 | KTMMQSGGTFGTFMAAGMGIR [KU-5878-I73A] | > 300 | > 300 | > 300 | > 300 | >300 | >300
